The record followed here is patent publication US7786141B2 (Vertex Pharmaceuticals Incorporated, priority 2004, dated 2010).

SMILES strings stand for the structures.

One experiment addresses T1, M1 muscarinic receptor (Homo sapiens, UniProt P11229).
T1 construct: expressed in transfected cells; host or cells: CHO (M1-CHO)
T1 sequence (P11229 1-460): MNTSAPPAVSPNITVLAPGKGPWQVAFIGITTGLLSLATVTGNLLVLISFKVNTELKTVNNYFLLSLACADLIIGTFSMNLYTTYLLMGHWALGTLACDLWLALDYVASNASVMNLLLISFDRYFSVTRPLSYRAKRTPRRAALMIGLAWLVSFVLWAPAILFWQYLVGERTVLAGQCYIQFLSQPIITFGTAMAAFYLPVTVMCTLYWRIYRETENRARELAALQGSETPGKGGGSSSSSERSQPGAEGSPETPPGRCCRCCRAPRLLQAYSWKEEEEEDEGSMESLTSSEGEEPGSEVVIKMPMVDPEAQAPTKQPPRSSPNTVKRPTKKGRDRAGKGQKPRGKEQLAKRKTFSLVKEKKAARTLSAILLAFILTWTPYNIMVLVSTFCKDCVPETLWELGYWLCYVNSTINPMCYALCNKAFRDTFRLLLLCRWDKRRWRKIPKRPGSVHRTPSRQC
Put plainly: Functional mobilization of intracellular calcium (FLIPR) in M1-CHO cells. The experiment is classed as cell-based. To be noted: M1 receptor, calcium mobilization; for Emax: read-out: M1 Efficacy. In short, it runs like this: (§1)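 Measured via Fluo-3 fluorescence on a FLIPR, CHO cells with either muscarinic subtype received compound in 0.5% DMSO. Antagonism was assessed after 15 min pre-incubation followed by carbachol at each subtype's EC80; agonism from compound addition alone.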
In general terms: Calcium assays in cells follow changes in intracellular calcium, usually with a dye or a luminescent sensor.

The next experiment addresses T2, M4 muscarinic receptor (Homo sapiens, UniProt P08173).
T2 construct: expressed in transfected cells; host or cells: CHO (M4-CHO)
T2 sequence (P08173 1-479): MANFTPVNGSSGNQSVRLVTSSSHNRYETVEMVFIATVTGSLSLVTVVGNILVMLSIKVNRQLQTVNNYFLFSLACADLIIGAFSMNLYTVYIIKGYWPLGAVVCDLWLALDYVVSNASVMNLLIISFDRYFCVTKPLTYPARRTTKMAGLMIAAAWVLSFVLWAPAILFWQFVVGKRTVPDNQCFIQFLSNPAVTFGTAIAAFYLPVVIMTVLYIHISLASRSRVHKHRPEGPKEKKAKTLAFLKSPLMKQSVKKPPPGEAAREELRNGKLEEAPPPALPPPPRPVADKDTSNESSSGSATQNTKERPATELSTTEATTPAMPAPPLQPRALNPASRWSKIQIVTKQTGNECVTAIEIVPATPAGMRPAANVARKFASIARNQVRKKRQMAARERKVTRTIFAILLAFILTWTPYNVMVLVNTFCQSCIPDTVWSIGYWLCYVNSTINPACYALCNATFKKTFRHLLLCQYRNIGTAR
Put plainly: Functional mobilization of intracellular calcium (FLIPR) in M4-CHO cells. To be noted: M4 receptor, calcium mobilization; for Emax: read-out: M4 Efficacy. The format is cell-based. The method, boiled down:
as §1

As to `CCOC(=O)N1C2CCC1CC(N1CCC3(CC1)CN(C(=O)C1CC1)c1ccc(F)cc13)C2` (centres unmarked) [compound 214], at M1 muscarinic receptor, the “M1 Activity” value is “x (activity was measured to be greater than 1.0 μM)” and the Emax was less than 65%. Besides, on M4 muscarinic receptor, the “M4 Activity” value is listed as “x (activity was measured to be greater than 1.0 μM)” and the Emax is less than 65%.

For `COCCOC(=O)N1C2CCC1CC(N1CCC3(CC1)CN(C(=O)O[C@@H]1CCOC1)c1ccc(F)cc13)C2` (some centres unmarked) [compound 216], at M1 muscarinic receptor, the “M1 Activity” value is recorded as “xxx (activity was measured to be less than 0.1 μM)” and the “M1 Efficacy” value is “xxx (efficacy was calculated to be greater than 85%)”. Also, at M4 muscarinic receptor, the “M4 Activity” value is listed as “x (activity was measured to be greater than 1.0 μM)” and the “M4 Efficacy” value is “x (efficacy was calculated to be less than 65%)”.

Take `O=C(OC1CCC1)N1C2CCC1CC(N1CCC3(CC1)C(=O)Nc1ccccc13)C2` (centres unmarked) [compound 217]: on M1 muscarinic receptor, the “M1 Activity” value was “xx (activity was measured to be between 0.1 μM and 1.0 μM)”; the Emax was less than 65%. Also, at M4 muscarinic receptor, the “M4 Activity” value is recorded as “x (activity was measured to be greater than 1.0 μM)” and the Emax is less than 65%.

For the compound `CCNC(=O)N1C2CCC1CC(N1CCC3(CC1)COc1ccc(F)cc13)C2` (centres unmarked) [compound 219], at M1 muscarinic receptor, the “M1 Activity” value was “x (activity was measured to be greater than 1.0 μM)” and the Emax was 65 to 85%. For the same compound, on M4 muscarinic receptor, the “M4 Activity” value was “x (activity was measured to be greater than 1.0 μM)” and the Emax was less than 65%.

Turning to `CCCCOC(=O)N1CC2(CCN(C3CCN(C(=O)OCC)CC3)CC2)c2cc(F)ccc21` [compound 220], at M1 muscarinic receptor, the “M1 Activity” value is given as “x (activity was measured to be greater than 1.0 μM)” and the Emax was in the range of 65 to 85%. Besides, on M4 muscarinic receptor, the “M4 Activity” value is listed as “x (activity was measured to be greater than 1.0 μM)” and the Emax was less than 65%.

As for `CCOC(=O)N1CCC(N2CCC3(CC2)CN(C(C)=O)c2ccc(-c4ccc(C(C)=O)cc4)cc23)CC1` [compound 221], at M1 muscarinic receptor, the “M1 Activity” value was “xx (activity was measured to be between 0.1 μM and 1.0 μM)”; the Emax was 65 to 85%. Moreover, on M4 muscarinic receptor, the “M4 Activity” value was “x (activity was measured to be greater than 1.0 μM)” and the Emax is less than 65%.

With `CCOC(=O)N1C2CCC1CC(N1CCC3(CC1)CN(C(=O)c1ccc(F)cc1)c1ccc(F)cc13)C2` (centres unmarked) [compound 222], on M1 muscarinic receptor, the “M1 Activity” value is “x (activity was measured to be greater than 1.0 μM)” and the Emax was less than 65%. Moreover, on M4 muscarinic receptor, the “M4 Activity” value is “x (activity was measured to be greater than 1.0 μM)” and the Emax was less than 65%.

As for `CCOC(=O)N1CCC(N2CCC3(CC2)CN(C(=O)N(CC)CC)c2ccc(F)cc23)CC1` [compound 223], on M1 muscarinic receptor, the “M1 Activity” value is recorded as “x (activity was measured to be greater than 1.0 μM)” and the Emax is less than 65%. At M4 muscarinic receptor, the “M4 Activity” value is “x (activity was measured to be greater than 1.0 μM)” and the Emax was less than 65%.

In the case of `Clc1ccc2c(c1)C1(CCN(C3CC4CCC3C4)CC1)CN2` (centres unmarked) [compound 224], on M1 muscarinic receptor, the “M1 Activity” value was “x (activity was measured to be greater than 1.0 μM)” and the Emax lay in the range of 65 to 85%. Also, at M4 muscarinic receptor, the “M4 Activity” value is given as “x (activity was measured to be greater than 1.0 μM)” and the Emax is less than 65%.

As for `CCOC(=O)N1CCC(N2CCC3(CC2)CN(C(C)=O)c2ccc(OC(F)(F)F)cc23)CC1` [compound 225], at M1 muscarinic receptor, the “M1 Activity” value was “x (activity was measured to be greater than 1.0 μM)” and the Emax was less than 65%. On M4 muscarinic receptor, the “M4 Activity” value is reported as “x (activity was measured to be greater than 1.0 μM)” and the Emax is less than 65%.

As for `CC(=O)N1CC2(CCN(C3CCC(C(C)C)CC3)CC2)c2cc(F)ccc21` (centres unmarked) [compound 226], at M1 muscarinic receptor, the “M1 Activity” value is “x (activity was measured to be greater than 1.0 μM)” and the Emax is less than 65%. Also, on M4 muscarinic receptor, the “M4 Activity” value is listed as “x (activity was measured to be greater than 1.0 μM)” and the Emax was less than 65%.

On to `CS(=O)(=O)N[C@@H]1CC2(CCN(C[C@H]3C[C@H]4CC[C@H]3C4)CC2)c2ccccc21` [compound 227], for which, on M1 muscarinic receptor, the “M1 Activity” value is listed as “xxx (activity was measured to be less than 0.1 μM)” and the Emax was greater than 85%. For the same compound, on M4 muscarinic receptor, the “M4 Activity” value is “xxx (activity was measured to be less than 0.1 μM)” and the Emax was greater than 85%.

Regarding `CCOC(=O)C1CCC(N2CCC3(CC2)CN(C(C)=O)c2ccc(F)cc23)CC1` (centres unmarked) [compound 228], at M1 muscarinic receptor, the “M1 Activity” value was “x (activity was measured to be greater than 1.0 μM)” and the Emax was less than 65%. Further, at M4 muscarinic receptor, the “M4 Activity” value was “x (activity was measured to be greater than 1.0 μM)” and the Emax is less than 65%.

Take `CCOC(=O)N1CCC(N2CCC3(CC2)CN(CCC(=O)CC)c2ccc(F)cc23)CC1` [compound 229]: on M1 muscarinic receptor, the “M1 Activity” value is “xx (activity was measured to be between 0.1 μM and 1.0 μM)”; the Emax is less than 65%. In addition, at M4 muscarinic receptor, the “M4 Activity” value is recorded as “xxx (activity was measured to be less than 0.1 μM)” and the Emax was greater than 85%.

`C#CCCOC(=O)N1C2CCC1CC(N1CCC3(CC1)CN(C(=O)N(C)C)c1ccc(F)cc13)C2` (centres unmarked) [compound 230]: on M1 muscarinic receptor, the “M1 Activity” value was “x (activity was measured to be greater than 1.0 μM)” and the Emax is less than 65%. At M4 muscarinic receptor, the “M4 Activity” value is “xx (activity was measured to be between 0.1 μM and 1.0 μM)”; the Emax was greater than 85%.

`CCCNC(=O)N1C2CCC1CC(N1CCC3(CC1)COc1ccc(F)cc13)C2` (centres unmarked) [compound 231]: on M1 muscarinic receptor, the “M1 Activity” value is “x (activity was measured to be greater than 1.0 μM)” and the Emax fell in the range of 65 to 85%. For the same compound, on M4 muscarinic receptor, the “M4 Activity” value is on record as “x (activity was measured to be greater than 1.0 μM)” and the Emax is greater than 85%.

Take `Cc1ccc2c(c1)C1(CCN(C3CC4CCC3C4)CC1)CN2S(C)(=O)=O` (centres unmarked) [compound 232]: at M1 muscarinic receptor, the “M1 Activity” value is “xx (activity was measured to be between 0.1 μM and 1.0 μM)”; the Emax is less than 65%. On M4 muscarinic receptor, the “M4 Activity” value is recorded as “xxx (activity was measured to be less than 0.1 μM)” and the Emax was greater than 85%.

In the case of `Cc1cc(C(=O)N2CC3(CCN(C4CC5CCC(C4)N5C(=O)O[C@@H]4CCOC4)CC3)c3cc(F)ccc32)nn1C` (some centres unmarked) [compound 233], on M1 muscarinic receptor, the “M1 Activity” value was “xxx (activity was measured to be less than 0.1 μM)” and the Emax lay within 65 to 85%. At M4 muscarinic receptor, the “M4 Activity” value is reported as “xxx (activity was measured to be less than 0.1 μM)” and the Emax was greater than 85%.

Regarding `CCOC(=O)N1CCC(N2CCC3(CC2)CN(C(C)=O)c2ccc(-c4cccnc4)cc23)CC1` [compound 234], on M1 muscarinic receptor, the “M1 Activity” value is “xxx (activity was measured to be less than 0.1 μM)” and the Emax was 65 to 85%. In addition, at M4 muscarinic receptor, the “M4 Activity” value is given as “xxx (activity was measured to be less than 0.1 μM)” and the Emax lay within 65 to 85%.

As to `COC(=O)N1CC2(CCN(C3CC4CCC(C3)N4C(=O)OC)CC2)c2cc(F)ccc21` (centres unmarked) [compound 235], on M1 muscarinic receptor, the “M1 Activity” value is “xx (activity was measured to be between 0.1 μM and 1.0 μM)”; the Emax lay in the range of 65 to 85%. Besides, on M4 muscarinic receptor, the “M4 Activity” value is reported as “x (activity was measured to be greater than 1.0 μM)” and the Emax was 65 to 85%.

For `CC(=O)N1CC2(CCN(C3CCC(C(F)(F)F)CC3)CC2)c2cc(F)ccc21` (centres unmarked) [compound 236], at M1 muscarinic receptor, the “M1 Activity” value is recorded as “xxx (activity was measured to be less than 0.1 μM)” and the Emax lay in the range of 65 to 85%. Also, at M4 muscarinic receptor, the “M4 Activity” value was “xx (activity was measured to be between 0.1 μM and 1.0 μM)”; the Emax fell in the range of 65 to 85%.

In the case of `CCOC(=O)N1CCC(CN2CCC3(CC2)CN(C(C)=O)c2ccc(OC)cc23)CC1` [compound 237], on M1 muscarinic receptor, the “M1 Activity” value is “xxx (activity was measured to be less than 0.1 μM)” and the Emax is less than 65%. In addition, on M4 muscarinic receptor, the “M4 Activity” value was “xx (activity was measured to be between 0.1 μM and 1.0 μM)”; the Emax was less than 65%.

With `O=C1CC2(CCN(C[C@@H]3C[C@H]4C=C[C@H]3C4)CC2)c2ccccc21` [compound 238], at M1 muscarinic receptor, the “M1 Activity” value is listed as “x (activity was measured to be greater than 1.0 μM)” and the Emax is less than 65%. Further, at M4 muscarinic receptor, the “M4 Activity” value is “x (activity was measured to be greater than 1.0 μM)” and the Emax is less than 65%.
